The source of these data is ChEMBL document CHEMBL1773043, “Platensimycin and platencin congeners from Streptomyces platensis” (J Nat Prod, 2011).

Active and inactive are the calls of the source. The rule behind the calls is not given here.

The target in assay [1] is T1, 3-oxoacyl-[acyl-carrier-protein] synthase 2 (Staphylococcus aureus) (UniProt Q5TKS0).
T1 sequence (whole entry): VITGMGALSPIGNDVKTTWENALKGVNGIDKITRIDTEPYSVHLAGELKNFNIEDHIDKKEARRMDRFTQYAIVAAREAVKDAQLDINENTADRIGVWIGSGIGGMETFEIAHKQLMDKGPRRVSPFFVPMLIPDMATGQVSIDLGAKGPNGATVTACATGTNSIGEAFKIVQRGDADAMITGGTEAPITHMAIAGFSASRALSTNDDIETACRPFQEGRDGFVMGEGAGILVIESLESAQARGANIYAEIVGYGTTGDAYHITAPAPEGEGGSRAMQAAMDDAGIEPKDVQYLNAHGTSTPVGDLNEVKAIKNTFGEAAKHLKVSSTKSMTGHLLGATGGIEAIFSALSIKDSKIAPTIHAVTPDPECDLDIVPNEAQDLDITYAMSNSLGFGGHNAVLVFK
Put plainly: (§1) Inhibition of Staphylococcus aureus […] assessed as [2-14C]-malonyl CoA incorporation after 90 mins by cell free-based scintillation counting.

The next assay relates to Haemophilus influenzae. Description: Antibacterial activity against Haemophilus influenzae at 64 ug/ml after 20 hrs. It is filed as functional, organism-based.
For a further assay, the system named is Enterococcus faecalis. Put plainly: Antibacterial activity against Enterococcus faecalis at 64 ug/ml after 20 hrs. The format is functional, organism-based.
Assay [2] has as its system Staphylococcus aureus. Description: Antibacterial activity against Staphylococcus aureus at 64 ug/ml after 20 hrs. It is filed as functional, organism-based.
The test system of another assay is Enterococcus faecium. Description: Antibacterial activity against Enterococcus faecium at 64 ug/ml after 20 hrs. It is filed as functional, organism-based.
Another assay concerns Streptococcus pneumoniae. Description: Antibacterial activity against Streptococcus pneumoniae at 64 ug/ml after 20 hrs. It is filed as functional, organism-based.
The test system of another assay is Escherichia coli. Put plainly: Antibacterial activity against Escherichia coli at 64 ug/ml after 20 hrs. The format is functional, organism-based.
Assay [3] concerns the target T2, 3-oxoacyl-[acyl-carrier-protein] synthase 2 (Staphylococcus aureus, UniProt Q5TKS0).
T2 sequence (Q5TKS0 whole entry): T1 sequence (whole entry)
The assay is described as §1.

The test system of assay [4] is Staphylococcus aureus. Put plainly: Antibacterial activity against Staphylococcus aureus RN450 expressing S1-1941 plasmid carrying antisense FabF2p RNA assessed as 5 mm differential zone clearance measured as minimum concentration after 18 hrs. The format is functional.

Regarding `COC(=O)c1ccc(O)c(NC(=O)CC[C@]2(C)C(=O)C=CC34CCC(CC32)[C@@](O)(CO)C4)c1O` (some centres undefined), in assay [1], the inhibition result is “inactive”. The result with Haemophilus influenzae, with Enterococcus faecalis, in the assay with Staphylococcus aureus [2], with Enterococcus faecium, in the assay with Streptococcus pneumoniae and in the assay on Escherichia coli was inactive.
As for `C[C@]12O[C@H]3CC1C[C@@]1(C=CC(=O)[C@@](C)(CCC(=O)O)C31)[C@H]2O` (some centres undefined), the inhibition result in [1] is “inactive”. For the same compound, the outcome in the assay on Haemophilus influenzae, in the assay on Enterococcus faecalis, in the assay on Staphylococcus aureus [2], in the assay with Enterococcus faecium, in the assay on Streptococcus pneumoniae and with Escherichia coli was inactive.
Consider `CC12CC34C=CC(=O)[C@@](C)(CCC(=O)Nc5c(O)ccc(C(=O)O)c5O)C3C(C[C@]1(O)C4)O2` (some centres undefined), for which the inhibition entry in [1] was “inactive”. The outcome in the assay on Haemophilus influenzae, in the assay on Enterococcus faecalis, in the assay with Staphylococcus aureus [2], with Enterococcus faecium, in the assay on Streptococcus pneumoniae and in the assay with Escherichia coli was inactive.
For the compound `C=C1CC23C=CC(=O)[C@@](C)(CCC(=O)OCC(O)CO)C2CC1CC3` (some centres undefined), the inhibition entry in [1] is “inactive”. Besides, the outcome in the assay on Haemophilus influenzae, in the assay on Enterococcus faecalis, in the assay on Staphylococcus aureus [2], in the assay with Enterococcus faecium, in the assay on Streptococcus pneumoniae and in the assay with Escherichia coli was inactive.
As to `C[C@@]12C[C@@]34C=CC(=O)[C@@](C)(CCC(=O)Nc5c(O)ccc(C(N)=O)c5O)C3[C@H](CC1C4)O2` (some centres undefined), the inhibition entry in assay [1] is “inactive”. Besides, the result with Haemophilus influenzae, with Enterococcus faecalis, with Staphylococcus aureus [2], with Enterococcus faecium, in the assay on Streptococcus pneumoniae and in the assay with Escherichia coli was inactive.
Consider `C=C1CC23C=CC(=O)[C@@](C)(CCC(=O)OC)C2CC1[C@@H](O)C3` (some centres undefined), for which the inhibition result in assay [1] is “inactive”. Moreover, the outcome in the assay with Haemophilus influenzae, with Enterococcus faecalis, in the assay on Staphylococcus aureus [2], with Enterococcus faecium, in the assay on Streptococcus pneumoniae and with Escherichia coli was inactive.
Turning to `C[C@@]1(CCC(=O)Nc2c(O)ccc(C(=O)O)c2O)C(=O)C=CC23CCC(CC21)[C@@](O)(CO)C3` (some centres undefined), in assay [1], the inhibition entry is “inactive”. Further, the result with Haemophilus influenzae, in the assay with Enterococcus faecalis, with Staphylococcus aureus [2], in the assay on Enterococcus faecium, with Streptococcus pneumoniae and with Escherichia coli was inactive.
For the compound `COC(=O)CC[C@]1(C)C(=O)C=C[C@]23CC4C[C@H](O[C@]4(C)C2)C31` (some centres undefined), the inhibition result in [1] is “inactive”. Further, the result in the assay with Haemophilus influenzae, with Enterococcus faecalis, with Staphylococcus aureus [2], in the assay with Enterococcus faecium, in the assay with Streptococcus pneumoniae and in the assay with Escherichia coli was inactive.
Regarding `C[C@@]1(O)CC23C=CC(=O)[C@@](C)(CCC(=O)Nc4c(O)ccc(C(=O)O)c4O)C2CC1CC3` (some centres undefined), the inhibition result in assay [1] was “inactive”. In addition, the result in the assay with Haemophilus influenzae, in the assay with Enterococcus faecalis, in the assay on Staphylococcus aureus [2], with Enterococcus faecium, with Streptococcus pneumoniae and in the assay on Escherichia coli was inactive.
For the compound `CC(=O)NCC[C@H](NC(=O)CC[C@]1(C)C(=O)C=C[C@]23CC4C[C@H](O[C@]4(C)C2)C31)C(=O)O` (some centres undefined), the inhibition result in assay [1] is “inactive”. The outcome in the assay on Haemophilus influenzae, with Enterococcus faecalis, with Staphylococcus aureus [2], with Enterococcus faecium, in the assay with Streptococcus pneumoniae and in the assay with Escherichia coli was inactive.
Consider `C=C1C2CCC3(C=CC(=O)[C@@](C)(CCC(=O)Nc4c(O)ccc(C(=O)OC)c4O)C3C2)[C@H]1O` (some centres undefined), for which the inhibition entry in assay [1] is “inactive”. The outcome with Haemophilus influenzae, in the assay on Enterococcus faecalis, in the assay with Staphylococcus aureus [2], in the assay on Enterococcus faecium, with Streptococcus pneumoniae and with Escherichia coli was inactive.
With `COC(=O)c1ccc(O)c(NC(=O)CC[C@]2(C)C(=O)C=CC34CC5(C)OC(C[C@]5(O)C3)C42)c1O` (some centres undefined), the inhibition result in assay [1] is “inactive”. Besides, the result in the assay with Haemophilus influenzae, in the assay with Enterococcus faecalis, in the assay with Staphylococcus aureus [2], in the assay on Enterococcus faecium, in the assay with Streptococcus pneumoniae and in the assay with Escherichia coli was inactive.
Consider `C[C@@]1(CCC(=O)Nc2c(O)ccc(C(=O)O)c2O)C(=O)C=CC23CC4CC(OC4(CO)C2)C31` (some centres undefined), for which, in assay [1], the inhibition result was “inactive”. The result in the assay with Haemophilus influenzae, in the assay with Enterococcus faecalis, with Staphylococcus aureus [2], in the assay with Enterococcus faecium, in the assay with Streptococcus pneumoniae and in the assay with Escherichia coli was inactive.
For the compound `COC(=O)c1ccc(O)c(NC(=O)CC[C@]2(C)C(=O)C[C@@H](O)[C@]34CC5C[C@H](O[C@]5(C)C3)C42)c1O` (some centres undefined), the inhibition result in assay [1] is “inactive”. The outcome in the assay on Haemophilus influenzae, with Enterococcus faecalis, in the assay on Staphylococcus aureus [2], with Enterococcus faecium, in the assay on Streptococcus pneumoniae and in the assay with Escherichia coli was inactive.
As for `C[C@]12O[C@H]3CC1C[C@@]1(C=C(O)C(=O)[C@@](C)(CCC(=O)Nc4c(O)ccc(C(=O)O)c4O)C31)C2O` (some centres undefined), in [3], the IC50 (commonly the concentration at which inhibition is half-maximal) was 33.8 µM. Besides, the Activity with Staphylococcus aureus [4] was less than 20 µg/mL. For the same compound, the outcome in the assay on Haemophilus influenzae, in the assay on Enterococcus faecalis, with Staphylococcus aureus [2], in the assay with Enterococcus faecium, in the assay with Streptococcus pneumoniae and in the assay with Escherichia coli was inactive.
Turning to `C=C1C[C@@]23C=CC(=O)[C@@](C)(CCC(=O)OC)C2C[C@@H]1C[C@H]3O` (some centres undefined), in [1], the inhibition entry is “inactive”. The outcome in the assay with Haemophilus influenzae, in the assay on Enterococcus faecalis, in the assay with Staphylococcus aureus [2], in the assay on Enterococcus faecium, in the assay with Streptococcus pneumoniae and in the assay with Escherichia coli was inactive.
As for `COCC(O)COc1ccc(C(C)(C)c2ccc(OCC(O)CO)cc2)cc1` (centres undefined), the inhibition result in assay [1] is “inactive”. The result in the assay with Haemophilus influenzae, in the assay with Enterococcus faecalis, with Staphylococcus aureus [2], in the assay on Enterococcus faecium, with Streptococcus pneumoniae and with Escherichia coli was inactive.
Take `C[C@@]12CC34C=CC(=O)[C@@](C)(CCC(=O)Nc5c(O)ccc(C(=O)O)c5O)C3[C@H](CC1[C@H]4O)O2` (some centres undefined): the inhibition entry in assay [1] was “inactive”. Moreover, the result with Haemophilus influenzae, with Enterococcus faecalis, in the assay on Staphylococcus aureus [2], in the assay with Enterococcus faecium, with Streptococcus pneumoniae and in the assay on Escherichia coli was inactive.
On to `C=C1CC23C=CC(=O)[C@@](C)(CCC(=O)Nc4c(O)ccc(C(=O)O)c4O)C2CC1[C@@H](O)C3` (some centres undefined), for which, in [1], the inhibition entry was “inactive”. The outcome in the assay on Haemophilus influenzae, in the assay with Enterococcus faecalis, in the assay on Staphylococcus aureus [2], in the assay on Enterococcus faecium, with Streptococcus pneumoniae and in the assay on Escherichia coli was inactive.
Regarding `COC(=O)c1ccc(O)c(NC(=O)CC[C@]2(C)C(=O)C=CC34CC5CC(OC5(CO)C3)C42)c1O` (some centres undefined) [PLATENSIMYCIN A4 METHYL ESTER], the inhibition result in assay [1] is “inactive”. For the same compound, in the assay with Staphylococcus aureus [4], the Activity came out at 100 µg/mL. Besides, the result with Haemophilus influenzae, in the assay with Enterococcus faecalis, in the assay on Staphylococcus aureus [2], in the assay with Enterococcus faecium, in the assay with Streptococcus pneumoniae and in the assay with Escherichia coli was inactive.
For the compound `COC(=O)CC[C@]1(C)C(=O)C=C[C@]23CC4C[C@H](O[C@]4(C)[C@@H]2O)C13` (some centres undefined), in assay [1], the inhibition result was “inactive”. The result in the assay on Haemophilus influenzae, in the assay with Enterococcus faecalis, in the assay on Staphylococcus aureus [2], with Enterococcus faecium, in the assay on Streptococcus pneumoniae and with Escherichia coli was inactive.
